This is an account of results in PMC11261605, “Photocontrolled Reversible Amyloid Fibril Formation of Parathyroid Hormone-Derived Peptides” (Bioconjugate Chemistry, 2024).

For orientation: thermodynamic solubility means solubility found after equilibrating the solid with the medium.

≈ marks a conversion by molar mass, not a printed value. *1 amine or outer side, *2 acyl side, *3 side chain or, on linkers, in order; H or OH if unused. Where a SMILES comes first, the peptide text is derived from it. Where no end group is shown, it is not given here. [ ]: non-standard residue; d: D form. X1 = O=C(c1cccc(N=Nc2ccc(CN[*:1])cc2)c1)[*:2]

Data set [1] can be described thus: Maximal solubility in buffered solution. The class given is physicochemical. The note with it: phosphate buffer, aqueous buffer; maximal solubility from solid (0.5 mg portions into 1 mL until precipitate); 50 mM aqueous Na2HPO4 pH 7.4; centrifuged 10 000 rpm 1 h 4 °C; supernatant by UV/vis absorbance. On the procedure:
UV/vis-absorbance spectroscopy was measured on a JASCO V-660 absorbance spectrometer in a 1 cm quartz glass cuvette. For PTH25–37, the absorbance was measured at 205 nm with a molar extinction coefficient of 49.310 cm^–1 M^–1; trans-azobenzene containing peptides were measured at 327 nm with a molar extinction coefficient of 13.000 cm^–1 M^–1. CD spectroscopy was measured with a JASCO J-1500 CD Spectrometer in either a 1 mm. As buffered solution, a 50 mM aqueous Na2HPO4 buffer solution was used with a pH value adjusted to 7.4. Transmission was measured with a Litesizer DLS 500 from Anton Paar using a 3 mm × 3 mm quartz glass cuvette. The irradiation wavelength was 658 nm. The equilibration time was 1 min, and the measurement time was 10 s. The temperature was maintained at 25 °C.
To determine the maximal solubility of a peptide, small amounts (0.5 mg) of the respective peptide were added to 1 mL of buffered solution and shacked for 10 s until an insoluble precipitate was visible. The suspensions were centrifuged at 10 000 rpm for 1 h at 4 °C, and the supernatant was transferred to another tube. The remaining monomer concentration was determined using UV/vis-absorbance spectroscopy. To determine the critical concentration ccr, two samples were prepared for each peptide according to the procedure for the ThT monitored fibrillization assay, one with ThT as a reference sample and the other one without ThT. Twenty hours after the reference sample reached the stationary phase, the fibril containing solutions from the sample without ThT were transferred to a tube and centrifuged at 10 000 rpm for 1 h at room temperature. The supernatant was transferred to another tube, and the concentration of the remaining monomers was determined using UV/vis-absorbance spectroscopy at 278 nm with a molar extinction coefficient of 3750 cm^–1 M^–1 for the azobenzene containing peptides and at 205 nm with a molar extinction coefficient of 49 310 cm^–1 M^–1 for PTH25–37.

The next data set deals with NHDF cells. The data set is described as follows: Resazurin reduction cell viability assay on NHDF fibroblasts. The note with it: trans-isomers, serial dilutions, 24 h or 96 h incubation, n = 8 per treatment, 3 independent experiments. The class given is cell-based, human. As for the experimental part: (§1) Cell viability was determined for trans-P4, trans-P8, and trans-P12 on NHDF as well as 3T3 fibroblasts with a resazurin reduction assay. Briefly, cells were seeded at desired cell densities in corresponding culture media supplemented with 10% FCS and penicillin/streptomycin in 96-well plates on day 0 and incubated overnight under standard cell culture conditions. On day 1, serial dilutions of the peptides in cell culture media were prepared. Then, medium (background and negative control–100% viability), TritonX in medium f.c. 0.025% (postive control–0% viability), and the peptide dilutions were added with one treatment per column (n = 8). Incubation for 24 h or 96 h under standard cell culture conditions followed. On day of measurement, resazurin stock solution was added to a final concentration of 44 μM into each well. After 2 h incubation, the resorufin fluorescence was measured with a Cytation 5 plate reader system. Means and standard deviation of each column were calculated. Experiments were repeated independently 3 times, and average values were evaluated (see Figure S12).
(§2) Figure S12: Cell viability assay of trans-P4, trans-P8, and trans-P12 on NHDF (human, adult, fibroblasts) and 3T3 (murine,
(§3) embryonal, fibroblasts) cells after 24 h (blue) and 96 h (orange). 100% cell viability corresponds to the value of the negative,
(§4) (1 picture or pasted object on this page, not shown here)
For orientation: Alamar Blue is a resazurin reagent that responds to reducing activity.

The test system of a further data set is 3T3 cells. Description: Resazurin reduction cell viability assay on 3T3 fibroblasts. The class given is cell-based, murine. The note with it: trans-isomers, serial dilutions, 24 h or 96 h incubation, n = 8 per treatment, 3 independent experiments. As for the experimental part: as §1, §2, §3, §4

As to `CC(C)C[C@H](NC(=O)[C@H](C)NC(=O)[C@@H](NC(=O)[C@H](Cc1ccccc1)NC(=O)[C@H](CC(N)=O)NC(=O)[C@H](Cc1c[nH]cn1)NC(=O)[C@@H](NC(=O)c1cccc(N=Nc2ccc(CNC(=O)[C@H](CC(=O)O)NC(=O)[C@H](CCC(N)=O)NC(=O)[C@H](CC(C)C)NC(=O)[C@H](CCCCN)NC(=O)[C@H](CCCCN)NC(=O)[C@@H](N)CCCNC(=N)N)cc2)c1)C(C)C)C(C)C)C(=O)O` [P1] (H-RKKLQD[X1]VHNFVAL-OH), in data set [1], the thermodynamic solubility at 10 s came to 90 µM (≈ 162 µg/mL). On the same count and under the same terms, next, `CC(C)C[C@H](NC(=O)[C@H](C)NC(=O)[C@@H](NC(=O)[C@H](Cc1ccccc1)NC(=O)[C@H](CC(N)=O)NC(=O)[C@H](Cc1c[nH]cn1)NC(=O)c1cccc(N=Nc2ccc(CNC(=O)[C@@H](NC(=O)[C@H](CC(=O)O)NC(=O)[C@H](CCC(N)=O)NC(=O)[C@H](CC(C)C)NC(=O)[C@H](CCCCN)NC(=O)[C@H](CCCCN)NC(=O)[C@@H](N)CCCNC(=N)N)C(C)C)cc2)c1)C(C)C)C(=O)O` [P2] (H-RKKLQDV[X1]HNFVAL-OH): 60 µM (≈ 108 µg/mL); `CC(C)C[C@H](NC(=O)[C@H](C)NC(=O)[C@@H](NC(=O)[C@H](Cc1ccccc1)NC(=O)[C@H](CC(N)=O)NC(=O)[C@H](Cc1c[nH]cn1)NC(=O)[C@@H](NC(=O)c1cccc(N=Nc2ccc(CNC(=O)[C@H](CCC(N)=O)NC(=O)[C@H](CC(C)C)NC(=O)[C@H](CCCCN)NC(=O)[C@H](CCCCN)NC(=O)[C@@H](N)CCCNC(=N)N)cc2)c1)C(C)C)C(C)C)C(=O)O` [P3] (H-RKKLQ[X1]VHNFVAL-OH): 35 µM (≈ 59.2 µg/mL). Consider `CC(C)C[C@H](NC(=O)[C@H](C)NC(=O)[C@@H](NC(=O)[C@H](Cc1ccccc1)NC(=O)[C@H](CC(N)=O)NC(=O)[C@H](Cc1c[nH]cn1)NC(=O)c1cccc(N=Nc2ccc(CNC(=O)[C@H](CC(=O)O)NC(=O)[C@H](CCC(N)=O)NC(=O)[C@H](CC(C)C)NC(=O)[C@H](CCCCN)NC(=O)[C@H](CCCCN)NC(=O)[C@@H](N)CCCNC(=N)N)cc2)c1)C(C)C)C(=O)O` [P4] (H-RKKLQD[X1]HNFVAL-OH), for which the “toxicity toward NHDF cells” value in the data set with NHDF cells is “did not observe any toxicity”. The “toxicity toward 3T3 cells” value in the data set with 3T3 cells is recorded as “did not observe any toxicity”. In data set [1], this compound showed a thermodynamic solubility at 10 s of 370 µM (≈ 631 µg/mL). In turn, `CC(C)C[C@H](NC(=O)[C@H](C)NC(=O)[C@@H](NC(=O)[C@H](Cc1ccccc1)NC(=O)[C@H](CC(N)=O)NC(=O)[C@H](Cc1c[nH]cn1)NC(=O)c1cccc(N=Nc2ccc(CNC(=O)[C@H](CCC(N)=O)NC(=O)[C@H](CC(C)C)NC(=O)[C@H](CCCCN)NC(=O)[C@H](CCCCN)NC(=O)[C@@H](N)CCCNC(=N)N)cc2)c1)C(C)C)C(=O)O` [P5] (H-RKKLQ[X1]HNFVAL-OH) displayed a thermodynamic solubility at 10 s in data set [1] of 25 µM (≈ 39.8 µg/mL). This counts as double-digit micromolar. The same measure, in the same setting: the value for `CC(C)C[C@H](NC(=O)[C@H](C)NC(=O)[C@@H](NC(=O)[C@H](Cc1ccccc1)NC(=O)[C@H](CC(N)=O)NC(=O)[C@H](Cc1c[nH]cn1)NC(=O)[C@@H](NC(=O)[C@H](CC(=O)O)NC(=O)c1cccc(N=Nc2ccc(CNC(=O)[C@H](CCC(N)=O)NC(=O)[C@H](CC(C)C)NC(=O)[C@H](CCCCN)NC(=O)[C@H](CCCCN)NC(=O)[C@@H](N)CCCNC(=N)N)cc2)c1)C(C)C)C(C)C)C(=O)O` [P6] (H-RKKLQ[X1]DVHNFVAL-OH) was 20 µM (≈ 36.1 µg/mL).

`CC(C)C[C@H](NC(=O)[C@H](C)NC(=O)[C@@H](NC(=O)[C@H](Cc1ccccc1)NC(=O)[C@H](CC(N)=O)NC(=O)[C@H](Cc1c[nH]cn1)NC(=O)[C@@H](NC(=O)[C@H](CC(=O)O)NC(=O)[C@H](CCC(N)=O)NC(=O)c1cccc(N=Nc2ccc(CNC(=O)[C@H](CC(C)C)NC(=O)[C@H](CCCCN)NC(=O)[C@H](CCCCN)NC(=O)[C@@H](N)CCCNC(=N)N)cc2)c1)C(C)C)C(C)C)C(=O)O` [P7] (H-RKKL[X1]QDVHNFVAL-OH) had a thermodynamic solubility at 10 s in data set [1] of 140 µM (≈ 253 µg/mL). With `CC(C)C[C@H](NC(=O)[C@H](C)NC(=O)[C@@H](NC(=O)[C@H](Cc1ccccc1)NC(=O)[C@H](CC(N)=O)NC(=O)[C@H](Cc1c[nH]cn1)NC(=O)[C@@H](NC(=O)[C@H](CC(=O)O)NC(=O)[C@H](CCC(N)=O)NC(=O)[C@H](CC(C)C)NC(=O)[C@H](CCCCN)NC(=O)c1cccc(N=Nc2ccc(CNC(=O)[C@H](CCCCN)NC(=O)[C@@H](N)CCCNC(=N)N)cc2)c1)C(C)C)C(C)C)C(=O)O` [P8] (H-RK[X1]KLQDVHNFVAL-OH), the “toxicity toward NHDF cells” value in the data set on NHDF cells was “did not observe any toxicity”. Moreover, the “toxicity toward 3T3 cells” value in the data set with 3T3 cells is reported as “did not observe any toxicity”. Also, the thermodynamic solubility at 10 s in data set [1] was 200 µM (≈ 361 µg/mL). In turn, `CC(C)C[C@H](NC(=O)[C@H](C)NC(=O)[C@@H](NC(=O)[C@H](Cc1ccccc1)NC(=O)[C@H](CC(N)=O)NC(=O)[C@H](Cc1c[nH]cn1)NC(=O)[C@@H](NC(=O)[C@H](CC(=O)O)NC(=O)[C@H](CCC(N)=O)NC(=O)[C@H](CC(C)C)NC(=O)[C@H](CCCCN)NC(=O)c1cccc(N=Nc2ccc(CNC(=O)[C@@H](N)CCCNC(=N)N)cc2)c1)C(C)C)C(C)C)C(=O)O` [P9] (H-R[X1]KLQDVHNFVAL-OH) yielded a solubility (thermodynamic) at 10 s in data set [1] of 130 µM (≈ 218 µg/mL). In data set [1], `CC(C)C[C@H](NC(=O)[C@H](C)NC(=O)[C@@H](NC(=O)[C@H](Cc1ccccc1)NC(=O)c1cccc(N=Nc2ccc(CNC(=O)[C@H](CC(N)=O)NC(=O)[C@H](Cc3c[nH]cn3)NC(=O)[C@@H](NC(=O)[C@H](CC(=O)O)NC(=O)[C@H](CCC(N)=O)NC(=O)[C@H](CC(C)C)NC(=O)[C@H](CCCCN)NC(=O)[C@H](CCCCN)NC(=O)[C@@H](N)CCCNC(=N)N)C(C)C)cc2)c1)C(C)C)C(=O)O` [P10] (H-RKKLQDVHN[X1]FVAL-OH) gave a thermodynamic solubility at 10 s of 7 µM (≈ 12.6 µg/mL). For the compound `CC(C)C[C@H](NC(=O)[C@H](C)NC(=O)c1cccc(N=Nc2ccc(CNC(=O)[C@@H](NC(=O)[C@H](Cc3ccccc3)NC(=O)[C@H](CC(N)=O)NC(=O)[C@H](Cc3c[nH]cn3)NC(=O)[C@@H](NC(=O)[C@H](CC(=O)O)NC(=O)[C@H](CCC(N)=O)NC(=O)[C@H](CC(C)C)NC(=O)[C@H](CCCCN)NC(=O)[C@H](CCCCN)NC(=O)[C@@H](N)CCCNC(=N)N)C(C)C)C(C)C)cc2)c1)C(=O)O` [P11] (H-RKKLQDVHNFV[X1]AL-OH), the solubility (thermodynamic) at 10 s in data set [1] was found to be 20 µM (≈ 36.1 µg/mL). With `CC(C)C[C@H](NC(=O)[C@H](C)NC(=O)c1cccc(N=Nc2ccc(CNC(=O)[C@H](Cc3ccccc3)NC(=O)[C@H](CC(N)=O)NC(=O)[C@H](Cc3c[nH]cn3)NC(=O)[C@@H](NC(=O)[C@H](CC(=O)O)NC(=O)[C@H](CCC(N)=O)NC(=O)[C@H](CC(C)C)NC(=O)[C@H](CCCCN)NC(=O)[C@H](CCCCN)NC(=O)[C@@H](N)CCCNC(=N)N)C(C)C)cc2)c1)C(=O)O` [P12] (H-RKKLQDVHNF[X1]AL-OH), the “toxicity toward NHDF cells” value with NHDF cells was “did not observe any toxicity”. Also, the “toxicity toward 3T3 cells” value in the data set on 3T3 cells is listed as “did not observe any toxicity”. In data set [1], the thermodynamic solubility at 10 s is 135 µM (≈ 230 µg/mL). Take “RKKLQDVHNFVAL [PTH25–37, reference compound]”: the thermodynamic solubility at 10 s in data set [1] is above 500 µM.
